Data taken from ChEMBL document CHEMBL3097990, “Probing the Binding Site of Bile Acids in TGR5” (ACS Med Chem Lett, 2013).

How the values were obtained:
Homo sapiens [1] = organism: Homo sapiens; experiment: Selectivity ratio of EC50 for TGR5 S270A mutant (unknown origin) to EC50 for wild type TGR5 (unknown origin)
Homo sapiens [2] = organism: Homo sapiens; experiment: Selectivity ratio of EC50 for TGR5 Y89F mutant (unknown origin) to EC50 for wild type TGR5 (unknown origin)
Homo sapiens [3] = organism: Homo sapiens; experiment: Selectivity ratio of EC50 for TGR5 Y89A mutant (unknown origin) to EC50 for wild type TGR5 (unknown origin)
[4] = target: T1, G-protein coupled bile acid receptor 1 (Homo sapiens, UniProt Q8TDU6); experiment: Agonist activity at wild type TGR5 (unknown origin)
T1 sequence (Q8TDU6 whole entry): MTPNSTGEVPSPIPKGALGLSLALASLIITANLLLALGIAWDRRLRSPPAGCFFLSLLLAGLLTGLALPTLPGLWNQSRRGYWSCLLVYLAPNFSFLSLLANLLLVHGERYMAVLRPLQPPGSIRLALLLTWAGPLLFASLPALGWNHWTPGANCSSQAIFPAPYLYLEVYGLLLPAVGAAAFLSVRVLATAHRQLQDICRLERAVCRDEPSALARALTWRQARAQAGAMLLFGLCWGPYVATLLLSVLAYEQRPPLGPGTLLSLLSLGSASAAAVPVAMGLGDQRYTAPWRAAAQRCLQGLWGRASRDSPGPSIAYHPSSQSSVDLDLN

Homo sapiens [5] = organism: Homo sapiens; experiment: Selectivity ratio of EC50 for TGR5 N93D mutant (unknown origin) to EC50 for wild type TGR5 (unknown origin)

- Ratio EC50 (Homo sapiens [1]): > 1000
- Ratio EC50 (Homo sapiens [2]): 1.7
- Ratio EC50 (Homo sapiens [3]): > 1000
- EC50 [4]: 1.32 µM
- Ratio EC50 (Homo sapiens [5]): > 1000
SMILES: CC[C@H]1[C@@H](O)[C@@H]2[C@H](CC[C@]3(C)[C@@H]([C@H](C)CCN)CC[C@@H]23)[C@@]2(C)CC[C@@H](O)C[C@@H]12
